Source: patent US20090325877A1, “Combination Product of Receptor Tyrosine Kinase Inhibitor and Fatty Acid Synthase Inhibitor for Treating Cancer” (Wyeth, priority 2008, published 2009)
Values after ≈ are worked out from the molar mass of the structure shown. “Also recorded” adds a separate entry of the source.

Experiments:
[1] = tested on: ERK1/2; assay: ERK1/2 phosphorylation and expression by Western blotting in A2780 and SKOV3 cells; type: cell-based
Procedure: (§1) Cells plated in culture media containing 5% fetal calf serum at a density of 2.6×10^5 (SKOV3) or 6×10^5 (A2780) in 60 mm dishes (Corning, Corning, N.Y.) were treated with FASN inhibitor C75, with small-molecule ErbB RTK inhibitors (RTKIs), with the MEK1/2 antagonist U0126 or with the PI3K inhibitor LY294002 for the indicated times and at various concentrations. In some experiments cells were stimulated for 5 or 10 min with 100 ng/ml EGF (Sigma) before lysis in RIPA buffer (Grunt et al., Biochem Biophys Res Commun 329:1253-1259, 2005). Proteins (20 μg/lane) were subjected to SDS-PAGE, blotted onto PVDF membranes and immunostained (see Grunt, ibid) using the following antibodies: 2 μg/ml goat anti-pEGFR(Tyr1173) (sc-12351), 1 μg/ml rabbit anti-ErbB2 (C-18) (sc-284), 1 μg/ml rabbit anti-pErbB2(Tyr1248) (sc-12352-R) (all from Santa Cruz Biotechnology Inc., Santa Cruz, Calif.), rabbit anti-EGFR 1:1,000 (2232), rabbit anti-AKT 1:1,000 (9272), rabbit anti-pAKT(Ser473) 1:1,000 (9271), rabbit anti-pAKT(Thr308) 1:1,000 (9275), rabbit anti-pERK1/2(Thr202/Tyr204) 1:1,000 (9101) (all from Cell Signaling Technology), rabbit anti-ERK1/2 1:3,000 (06-182, Upstate Biotechnology Inc., Lake Placid, N.Y.), 0.5 μg/ml mouse monoclonal anti-FASN (610963, BD Biosciences, San Jose, Calif.), or 0.67 μg/ml goat anti-human actin (1-19, sc-1616, Santa Cruz Biotechnology). […]

[2] = tested on: ErbB2 mRNA; assay: ErbB2 mRNA by RT-PCR and qRT-PCR in A2780 cells; type: cell-based, human
Source text: (§2) RNA was extracted from the cells using TRI-REAGENT™ (Molecular Research Center, Cincinnati, Ohio) and subjected to reverse transcription—polymerase chain reaction (“RT-PCR”) using the TITAN ONE TUBE RT-PCR KIT™ system (Hoffmann-La Roche). Primers were: EGFR: 5′-[…]-3′ (SEQ ID NO:1) (forward, E1S) 5′-[…]-3′ (SEQ ID NO:2) (reverse, E1A); ErbB-2: 5′-[…]-3′ (SEQ ID NO:3) (forward, E2S2), 5′-[…]-3′ (SEQ ID NO:4) (reverse, E2A2); GAPDH: 5′-[…]-3′ (SEQ ID NO:5) (forward, GAPDH3S), 5′-[…]-3′ (SEQ ID NO:6) (reverse, GAPDH3A). Conditions for reverse transcription and amplification of the EGFR coding sequence were: 50° C., 30 minutes; 94° C., 2 minutes; 10 cycles (94° C., 30 seconds; 64.9° C., 30 seconds; 68° C., 90 seconds); 30 cycles (94° C., 30 seconds; 64.9° C., 30 seconds; 68° C., 90 seconds +5 seconds autoextension) and 68° C., 7 minutes. Conditions for ErbB2 and GAPDH were: 50° C., 30 minutes; 94° C., 2 minutes; 10 cycles (94° C., 30 seconds; 51° C., 30 seconds; 68° C., 45 seconds); 25 cycles (94° C., 30 seconds; 51° C., 30 seconds; 68° C., 45 seconds +5 seconds autoextension) and 68° C., 7 minutes. DNA products had the following sizes: EGFR: 1452 bp, ErbB2: 900 bp, GAPDH: 488 bp. Fragments were electrophoresed and stained with ethidium bromide.
(§3) Quantitative RT-PCR (“qRT-PCR”) was performed in the ABI PRISM 7000™ Sequence Detector (Applied Biosystems, Foster City, Calif.) using human EGFR, ErbB2, and FASN TaqMan® Gene Expression Assay systems (Applied Biosystems; Assay IDs: Hs00193306_m1, Hs00170433_m1, Hs00188012_m1) according to the manufacturer's instructions. β-actin and GAPDH (VIC™ and FAM labeled pre-developed TaqMan® Assay reagents, Applied Biosystems) were used as endogenous controls. EGFR, ErbB2, and FASN mRNA expression were calculated as described previously (Grunt, ibid).

[3] = tested on: ErbB2 mRNA; assay: ErbB2 mRNA by qRT-PCR in SKBR3 breast cancer cells; type: cell-based, human
Source text: (§4) RNA was extracted from the cells using TRI-REAGENT™ (Molecular Research Center, Cincinnati, Ohio) and subjected to reverse transcription—polymerase chain reaction (“RT-PCR”) using the TITAN ONE TUBE RT-PCR KIT™ system (Hoffmann-La Roche). Primers were: EGFR: 5′-[…]-3′ (SEQ ID NO:1) (forward, E1S) 5′-[…]-3′ (SEQ ID NO:2) (reverse, E1A); ErbB-2: 5′-[…]-3′ (SEQ ID NO:3) (forward, E2S2), 5′-[…]-3′ (SEQ ID NO:4) (reverse, E2A2); GAPDH: 5′-[…]-3′ (SEQ ID NO:5) (forward, GAPDH3S), 5′-[…]-3′ (SEQ ID NO:6) (reverse, GAPDH3A). Conditions for reverse transcription and amplification of the EGFR coding sequence were: 50° C., 30 minutes; 94° C., 2 minutes; 10 cycles (94° C., 30 seconds; 64.9° C., 30 seconds; 68° C., 90 seconds); 30 cycles (94° C., 30 seconds; 64.9° C., 30 seconds; 68° C., 90 seconds +5 seconds autoextension) and 68° C., 7 minutes. […]
as §3

[4] = tested on: SKOV3 ovarian cancer cells; assay: Formazan dye (MTT) in-vitro cell growth assay, SKOV3; type: cell-based
Procedure: Cells were plated at 0.5−5×10^3/well in 96-well plates. After adhesion, media ±drugs alone or in combination were added. Cell numbers were estimated after 3-5 days by using a colorimetric formazan dye assay (Biomedica, Vienna, Austria). […] Statistical analysis of data from drug combination treatment experiments was performed using one-factorial ANOVA followed by Scheffe-test.
Yellow MTT (3-(4,5-Dimethylthiazol-2-yl)-2,5-diphenyltetrazolium bromide, a tetrazole) is reduced to purple formazan in the mitochondria of living cells (see Mosmann, T., J. Immunol. Methods, 65(1-2): 55-63, 1983).

[5] = tested on: EGFR protein; assay: EGFR protein and tyrosine phosphorylation by Western blot in A2780 cells; type: cell-based
[6] = tested on: FASN mRNA; assay: FASN mRNA expression by qRT-PCR in A2780 cells; type: cell-based, human
Source text: as §2, §3

[7] = tested on: AKT; assay: AKT phosphorylation and expression by Western blotting in A2780 and SKOV3 cells; type: cell-based
Procedure: as §1

[8] = tested on: EGFR mRNA; assay: EGFR mRNA by qRT-PCR in SKBR3 breast cancer cells; type: cell-based; settings: Homo sapiens, SK-BR-3, read-out: IC50, down-regulation of EGFR mRNA
Source text: as §4, §3

[9] = tested on: FASN protein; assay: FASN protein level by Western blotting in A2780 cells; type: cell-based
[10] = b102: within three days, pelitinib at doses as low as 3 μM

- IC50 ([5]; Homo sapiens, Western blot): 3.6 µg/mL (≈ 14.2 µM)
- IC50 ([6]; Homo sapiens, 72 h, after 3 days, qRT-PCR, read-out: IC50, down-regulation of FASN mRNA expression): 5.25 µg/mL (≈ 20.6 µM)
- IC50 [8]: 7.5 µg/mL (≈ 29.5 µM)
- IC50 ([9]; Homo sapiens, read-out: IC50, down-regulation of FASN protein): 4.15 µg/mL (≈ 16.3 µM)
SMILES: C=C1C(=O)OC(CCCCCCCC)C1C(=O)O (centres unmarked) [C75, tetrahydro-3-methylene-2-oxo-5-n-octyl-4-furancarboxylic acid]
- pERK1/2 levels, effect in words [1]: dose-dependently increase
- total ERK1/2 levels, effect in words [1]: concurrently decline
- ErbB2 mRNA, effect in words [2]: not affected; also recorded: failed to diminish
- ErbB2 mRNA, effect in words [3]: dose-dependent decline; also recorded: dose-dependent down-regulation
- inhibition at 10 µg/mL ([4]; Homo sapiens, SK-OV-3, 10 μg/ml C75 on its own): 50 to 55%
- in vitro growth inhibition (in words) ([4]; MTT assay, single drug): growth inhibitory activity
- EGFR total protein, effect in words [5]: slowly and concordantly reduces
- EGFR tyrosine phosphorylation (activity), effect in words [5]: slowly and concordantly reduces
- IT50, EGFR phosphorylation [5]: 20 h
- IT50, EGFR protein [5]: 29 h
- IT50 (time of exposure after which a 50% inhibition is obtained), FASN mRNA ([6]; at 7 μg/ml): 21.5 h
- FASN mRNA expression, effect in words [6, 10]: shut-down
- phosphorylation of AKT (Ser473, Thr308), effect in words [7]: dose-dependently inhibits
- total AKT protein level, effect in words ([7]; C75 at high concentrations): slightly affects
- IT50, FASN protein [9]: 40 h
- FASN protein expression, effect in words [9, 10]: shut-down
